Test results: US20090099177A1, “PYRIDYL COMPOUNDS” (priority 2006, published 2009)
Counter-ions that a name gives are not always drawn.

biological target: T1, human prostanoid EP1 receptor (Homo sapiens, UniProt P34995); experiment: Binding assay for the human prostanoid EP1 receptor (competition with [3H]-PGE2); details: [3H]-PGE2 competition, human EP1, CHO-K1 membranes; averages of a number of experiments; read-out: pIC50 value (converted)
T1 construct: expressed in transfected cells; host or cells: CHO-K1 (membrane fraction)
T1 sequence (P34995 1-402): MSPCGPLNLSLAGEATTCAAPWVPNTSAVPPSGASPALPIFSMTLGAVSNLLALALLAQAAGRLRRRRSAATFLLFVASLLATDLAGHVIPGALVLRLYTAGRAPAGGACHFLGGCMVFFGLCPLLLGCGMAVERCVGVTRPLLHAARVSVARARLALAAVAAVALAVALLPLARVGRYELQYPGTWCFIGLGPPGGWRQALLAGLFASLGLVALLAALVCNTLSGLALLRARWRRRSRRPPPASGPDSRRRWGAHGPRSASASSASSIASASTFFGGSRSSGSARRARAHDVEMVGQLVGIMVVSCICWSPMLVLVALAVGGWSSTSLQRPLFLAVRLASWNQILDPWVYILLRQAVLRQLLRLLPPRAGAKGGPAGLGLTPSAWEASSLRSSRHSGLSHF
Experimental: Competition assay using [^3H]-PGE2.
Compound potencies are determined using a radioligand binding assay. In this assay compound potencies are determined from their ability to compete with tritiated prostaglandin E2 ([^3H]-PGE2) for binding to the human EP1 receptor.
This assay utilises Chinese hamster ovary-K1 (CHO-K1) cells into which a stable vector containing the EP1 cDNA has previously been transfected. Cells are cultured in suitable flasks containing culture medium such as DMEM:F-12 supplemented with 10% v/v foetal calf serum, 2 mM L-glutamine, 0.25 mg/ml geneticin, 10 μg/ml puromycin and 10 μM indomethacin.
Cells are detached from the culture flasks by incubation in calcium and magnesium free phosphate buffered saline containing 1 mM disodium ethylenediaminetetraacetic acid (Na2EDTA) and 10 μM indomethacin for 5 min. The cells are isolated by centrifugation at 250×g for 5mins and suspended in an ice cold buffer such as 50 mM Tris, 1 mM Na2EDTA, 140 mM NaCl, 10 μM indomethacin (pH 7.4). The cells are homogenised using a Polytron tissue disrupter (2×10 s burst at full setting), centrifuged at 48,000×g for 20mins and the pellet containing the membrane fraction is washed (optional) three times by suspension and centrifugation at 48,000×g for 20mins. The final membrane pellet is suspended in an assay buffer such as 10 mM 2-[N-morpholino]ethanesulphonic acid, 1 mM Na2EDTA, 10 mM MgCl2 (pH 6). Aliquots are frozen at −80° C. until required.
For the binding assay the cell membranes, competing compounds and [^3H]-PGE2 (3 nM final assay concentration) are incubated in a final volume of 100 μl for 30 min at 30° C. All reagents are prepared in assay buffer. Reactions are terminated by rapid vacuum filtration over GF/B filters using a Brandell cell harvester. The filters are washed with ice cold assay buffer, dried and the radioactivity retained on the filters is measured by liquid scintillation counting in Packard TopCount scintillation counter.
The data are analysed using non linear curve fitting techniques to determine the concentration of compound producing 50% inhibition of specific binding (IC50).

IC50 [µM]	Structure (SMILES)
≤ 0.1	O=C(Nc1cccc(Cc2cc(Cl)ccc2OCc2ccccc2)n1)C1CCCO1 (stereo not drawn) [Example 17, N-[6-({5-Chloro-2-[(phenylmethyl)oxy]phenyl}methyl)-2-pyridinyl]tetrahydro-2-furancarboxamide]
≤ 0.1	O=C(Nc1cccc(Cc2cc(Cl)ccc2OCc2ccccc2)n1)C1CCOC1 (stereo not drawn) [Example 18, N-[6-({5-Chloro-2-[(phenylmethyl)oxy]phenyl}methyl)-2-pyridinyl]tetrahydro-3-furancarboxamide]
≤ 0.1	CC(C)COc1ccc(Cl)cc1Cc1cccc(-c2ncc[nH]2)n1 [Example 42, 2-({5-Chloro-2-[(2-methylpropyl)oxy]phenyl}methyl)-6-(1H-imidazol-2-yl)pyridine]
≤ 0.1	CN(C)Cc1ccc(NC(=O)c2cccc(Cc3cc(Cl)ccc3OCc3ccc(Cl)cc3F)n2)cc1 [Example 53, 6-[(5-Chloro-2-{[(4-chloro-2-fluorophenyl)methy]oxy}phenyl)methyl]-N-{4-[(dimethylamino)methyl]phenyl}-2-pyridinecarboxamide]

biological target: T2, human EP1 receptor (Homo sapiens, UniProt P34995); experiment: human EP1 calcium mobilisation assay; assay type: cell-based; details: human EP1, CHO-K1 cells, antagonism of PGE2; averages of a number of experiments; read-out: functional pKi value (converted)
T2 construct: expressed in transfected cells; host or cells: CHO-K1
T2 sequence (P34995 1-402): T1 sequence (P34995 1-402)
Experimental: Briefly, the antagonist properties of compounds are assessed by their ability to inhibit the mobilisation of intracellular calcium ([Ca^2+]i) in response to activation of EP1 or EP3 receptors by the natural agonist hormone prostaglandin E2 (PGE2). Increasing concentrations of antagonist reduce the amount of calcium that a given concentration of PGE2 can mobilise. The net effect is to displace the PGE2 concentration-effect curve to higher concentrations of PGE2. The amount of calcium produced is assessed using a calcium-sensitive fluorescent dye such as Fluo-4, AM and a suitable instrument such as a Fluorimetric Imaging Plate Reader (FLIPR). Increasing amounts of [Ca^2+]i produced by receptor activation increase the amount of fluorescence produced by the dye and give rise to an increasing signal. The signal may be detected using the FLIPR instrument and the data generated may be analysed with suitable curve-fitting software.
The human EP1 or EP3 calcium mobilisation assay (hereafter referred to as ‘the calcium assay’) utilises Chinese hamster ovary-K1 (CHO-K1) cells into which a stable (pCIN; BioTechniques 20 (1996): 102-110) vector containing either EP1 or EP3 cDNA has previously been transfected. Cells are cultured in suitable flasks containing culture medium such as DMEM:F-12 supplemented with 10% v/v foetal calf serum, 2 mM L-glutamine, 0.25 mg/ml geneticin, 100 μM flurbiprofen and 10 μg/ml puromycin.
For assay, cells are harvested using a proprietary reagent that dislodges cells such as Versene. Cells are re-suspended in a suitable quantity of fresh culture media for introduction into a 384-well plate. Following incubation for 24 hours at 37° C. the culture media is replaced with a medium containing Fluo-4 and the detergent pluronic acid, and a further incubation takes place. Concentrations of compounds are then added to the plate in order to construct concentration-effect curves. This may be performed on the FLIPR in order to assess the agonist properties of the compounds. Concentrations of PGE2 are then added to the plate in order to assess the antagonist properties of the compounds.
The data so generated may be analysed by means of a computerised curve-fitting routine. The concentration of compound that elicits a half-maximal inhibition of the calcium mobilisation induced by PGE2 (pIC50) may then be estimated.

Ki [µM]	Structure (SMILES)
≤ 10	O=C(Cc1ccccc1)Nc1cccc(Cc2cc(Cl)ccc2OCc2ccccc2)n1 [Example 2, N-[6-({5-Chloro-2-[(phenylmethyl)oxy]phenyl}methyl)-2-pyridinyl]-2-phenylacetamide]
≤ 0.316	O=C(Nc1cccc(Cc2cc(Cl)ccc2OCc2ccccc2)n1)c1ccccc1 [Example 3, N-[6-({5-Chloro-2-[(phenylmethyl)oxy]phenyl}methyl)-2-pyridinyl]benzamide]
≤ 0.316	O=C(NCc1ccccn1)c1cccc(Cc2cc(Cl)ccc2OCc2ccccc2)n1 [Example 7, 6-({5-Chloro-2-[(phenylmethyl)oxy]phenyl}methyl)-N-(2-pyridinylmethyl)-2-pyridinecarboxamide]
≤ 0.316	CC(C)COc1ccc(Cl)cc1Cc1cccc(-c2nc3cnc4ccccc4c3[nH]2)n1 [Example 24, 2-[6-({5-Chloro-2-[(2-methylpropyl)oxy]phenyl}methyl)-2-pyridinyl]-1H-imidazo[4,5-c]quinoline hydrochloride]
≤ 10	CN1CCN(c2ccc3nc(-c4cccc(Cc5cc(Cl)ccc5OCc5ccccc5)n4)[nH]c3c2)CC1 [Example 26, 2-[6-({5-Chloro-2-[(phenylmethyl)oxy]phenyl}methyl)-2-pyridinyl]-5-(4-methyl-1-piperazinyl)-1H-benzimidazole Hydrochloride]
≤ 10	Fc1cccc2[nH]c(-c3cccc(Cc4cc(Cl)ccc4OCc4ccccc4)n3)nc12 [Example 32, 2-[6-({5-Chloro-2-[(phenylmethyl)oxy]phenyl}methyl)-2-pyridinyl]-4-fluoro-1H-benzimidazolehydrochioride]
≤ 0.316	Clc1ccc(OCc2ccccc2)c(Cc2cccc(-c3nc4cnccc4[nH]3)n2)c1 [Example 38, 2-[6-({5-Chloro-2-[(phenylmethyl)oxy]phenyl}methyl)-2-pyridinyl]-1H-imidazo[4,5-c]pyridinehydrochloride]
≤ 0.316	CC(C)COc1ccc(Cl)cc1Cc1cccc(NC(=O)c2ccc(CN3CCOCC3)cc2)n1 [Example 45, N-[6-({5-Chloro-2-[(2-methylpropyl)oxy]phenyl}methyl)-2-pyridinyl]-4-(4-morpholinylmethyl)benzamide Hydrochloride]
≤ 10	CC(C)COc1ccc(Cl)cc1Cc1cccc(NC(=O)c2ccc(CN3CCCC3)cc2)n1 [Example 46, N-[6-({5-Chloro-2-[(2-methylpropyl)oxy]phenyl}methyl)-2-pyridinyl]-4-(1-pyrrolidinylmethyl)benzamidehydrochloride]
≤ 10	CC(C)COc1ccc(Cl)cc1Cc1cccc(NC(=O)c2ccc(CN3CCCCC3)cc2)n1 [Example 47, N-[6-({5-Chloro-2-[(2-methylpropyl)oxy]phenyl}methyl)-2-pyridinyl]-4-(1-piperidinylmethyl)benzamidehydrochloride]
≤ 10	CC(C)COc1ccc(Cl)cc1Cc1cccc(NC(=O)c2ccc(CN3CCN(C)CC3)cc2)n1 [Example 48]
≤ 10	CC(C)COc1ccc(Cl)cc1Cc1cccc(-c2nc3ccc(CN4CCCCC4)cc3[nH]2)n1 [Example 50, 2-[6-({5-Chloro-2-[(2-methylpropyl)oxy]phenyl}methyl)-2-pyridinyl]-5-(1-piperidinylmethyl)-1H-benzimidazole hydrochloride]
≤ 10	CC(C)(C)OC(=O)Nc1cccc(Cc2cc(Cl)ccc2OCc2ccc(Cl)cc2F)n1 [Example 60, 1,1-Dimethylethyl {6-[(5-chloro-2-{[(4-chloro-2-fluoronhenyl)methyl]oxy}phenyl)methyl]-2-pyridinyl}carbamate]
≤ 10	NC(=O)c1cccc(Cc2cc(Cl)ccc2OCc2ccc(Cl)cc2F)n1 [Example 63, 6-[(5-Chloro-2-{[(4-chloro-2-fluorophenyl)methyl]oxy}phenyl)methyl]-2-pyridinecarboxamide]

same assay, conditions: human EP1 calcium mobilisation assay; read-out: pIC50 values (converted)

IC50 [µM]	Structure (SMILES)
> 10	O=C(Nc1ccccn1)c1cccc(Cc2cc(Cl)ccc2OCc2ccccc2)n1 [Example 6, 6-({5-Chloro-2-[(phenylmethyl)oxy]phenyl}methyl)-N-2-pyridinyl-2-pyridinecarboxamide]
> 10	O=C(Nc1ccccc1)c1cccc(Cc2cc(Cl)ccc2OCc2ccccc2)n1 [Example 10, 6-({5-Chloro-2-[(phenylmethyl)oxy]phenyl}methyl)-N-phenyl-2-pyridinecarboxamide]
> 10	O=C(NCc1ccccc1)c1cccc(Cc2cc(Cl)ccc2OCc2ccccc2)n1 [Example 11, 6-({5-Chloro-2-[(phenylmethyl)oxy]phenyl}methyl)-N-(phenylmethyl)-2-pyridinecarboxamide]
> 10	O=C(Nc1cccc(Cc2cc(Cl)ccc2OCc2ccccc2)n1)c1cccnc1 [Example 16, N-[6-({5-Chloro-2-[(phenylmethyl)oxy]phenyl}methyl)-2-pyridinyl]-3-pyridinecarboxamide]
> 10	Fc1cc2nc(-c3cccc(Cc4cc(Cl)ccc4OCc4ccccc4)n3)[nH]c2cc1F [Example 37, 2-[6-({5-Chloro-2-[(phenylmethyl)oxy]phenyl}methyl)-2-pyridinyl]-5,6-difluoro-1H-benzimidazolehydrochloride]
> 10	Fc1ccc2nc(-c3cccc(Cc4cc(Cl)ccc4OCc4ccccc4)n3)[nH]c2c1F [Example 40, 2-[6-({5-Chloro-2-[(phenylmethyl)oxy]phenyl}methyl)-2-pyridinyl]-4,5-difluoro-1H-benzimidazolehydrochloride]
